molecular target: [35S]-TBPS binding, rat brain cortical membranes; assay: Steroid inhibition of [35S]-TBPS binding; settings: 3 nM [35S]-TBPS, in the presence of 5 mM GABA
Procedure, shortened: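 Rat cortical P2 membranes incubated 90 min at room temperature with 3 nM [35S]-TBPS, […] and test compound (0.5% DMSO final) in NaCl/Na–K phosphate pH 7.4; nonspecific binding with […]. Filter-bound radioactivity counted; IC50 and Imax from nonlinear fits, mean ± SEM.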

For `COC[C@@]1(O)CC[C@H]2[C@H](CC[C@@H]3[C@@H]2CC[C@]2(C)[C@@H]([C@@H](C)NS(=O)(=O)c4cccc(C#N)n4)CC[C@@H]32)C1` [Example 75], which IC50 is on record?
Its IC50 is < 100 nM.

With `C[C@@]1(O)CC[C@H]2[C@H](CC[C@@H]3[C@@H]2CC[C@]2(C)[C@@H](CC(=O)Nc4ccccc4)CC[C@@H]32)C1` [Example 76, 2-((3R,5R,8R,9R,10S,13R,14S,17R)-3-hydroxy-3,13-dimethylhexadecahydro-1H-cyclopenta[a]phenanthren-17-yl)-N-phenylacetamide] as the compound, how does the IC50 read?
Its IC50 is 100 to 1000 nM.

With `CCOC[C@@]1(O)CC[C@@]2(C)[C@H](CC[C@@H]3[C@@H]2CC[C@]2(C)[C@@H]([C@@H](C)NS(=O)(=O)c4ccc(C#N)cn4)CC[C@@H]32)C1` [Example 77, 5-cyano-N—((R)-1-((3R,5R,8R,9S,10S,13S,14S,17S)-3-(ethoxymethyl)-3-hydroxy-10,13-dimethylhexadecahydro-1H-cyclopenta[a]phenanthren-17-yl)ethyl)pyridine-2-sulfonamide] as the compound, how does the IC50 read?
Its IC50 is < 100 nM.

`CCOC[C@@]1(O)CC[C@@]2(C)[C@H](CC[C@@H]3[C@@H]2CC[C@]2(C)[C@@H]([C@@H](C)N(C)S(=O)(=O)c4ccc(C#N)cn4)CC[C@@H]32)C1` [Example 78, 5-cyano-N—((R)-1-((3R,5R,8R,9S,10S,13S,14S,17S)-3-(ethoxymethyl)-3-hydroxy-10,13-dimethylhexadecahydro-1H-cyclopenta[a]phenanthren-17-yl)ethyl)-N-methylpyridine-2-sulfonamide] was tested. Which IC50 did it give?
Its IC50 is < 100 nM.

How did the IC50 turn out when `COC[C@@]1(O)CC[C@H]2[C@H](CC[C@@H]3[C@@H]2CC[C@]2(C)[C@@H](CCn4ccc(C#N)n4)CC[C@@H]32)C1` [Example 87, 1-(2-((3R,5R,8R,9R,10S,13R,14S,17R)-3-hydroxy-3-(methoxymethyl)-13-methylhexadecahydro-1H-cyclopenta[a]phenanthren-17-yl)ethyl)-1H-pyrazole-3-carbonitrile] was run?
Its IC50 is < 100 nM.

`COC[C@@]1(O)CC[C@H]2[C@H](CC[C@@H]3[C@@H]2CC[C@]2(C)[C@@H](CCn4nccc4C#N)CC[C@@H]32)C1` [Example 88, 1-(2-((3R,5R,8R,9R,10S,13R,14S,17R)-3-hydroxy-3-(methoxymethyl)-13-methylhexadecahydro-1H-cyclopenta[a]phenanthren-17-yl)ethyl)-1H-pyrazole-5-carbonitrile] was tested. Which IC50 did it give?
The IC50 was < 100 nM.

For `CCC[C@@]1(O)CC[C@H]2[C@H](CC[C@@H]3[C@@H]2CC[C@]2(C)[C@@H]([C@@H](C)Nc4ccc(C#N)cn4)CC[C@@H]32)C1` [Example 90, 6-(((R)-1-((3R,5R,8R,9R,10S,13S,14S,17S)-3-hydroxy-13-methyl-3-propylhexadecahydro-1H-cyclopenta[a]phenanthren-17-yl)ethyl)amino)nicotinonitrile], which IC50 is on record?
Its IC50 is 100 to 1000 nM.

How did the IC50 turn out when `CCC[C@@]1(O)CC[C@H]2[C@H](CC[C@@H]3[C@@H]2CC[C@]2(C)[C@@H]([C@@H](C)Nc4ccc(-n5ccc(C)n5)nc4C)CC[C@@H]32)C1` [Example 91, (3R,5R,8R,9R,10S,13S,14S,17S)-13-methyl-17-((R)-1-((2-methyl-6-(3-methyl-1H-pyrazol-1-yl)pyridin-3-yl)amino)ethyl)-3-propylhexadecahydro-1H-cyclopenta[a]phenanthren-3-ol] was run?
Its IC50 is 100 to 1000 nM.

With `COC[C@@]1(O)CC[C@H]2[C@H](CC[C@@H]3[C@@H]2CC[C@]2(C)[C@@H]([C@@H](C)Cn4cc(C#N)cn4)CC[C@@H]32)C1` [Example 92, 1-((R)-2-((3R, 5R, 8R, 9R, 10S, 13S, 14S, 17R)-3-hydroxy-3-(methoxymethyl)-13-methylhexadecahydro-1H-cyclopenta[a]phenanthren-17-yl)propyl)-1H-pyrazole-4-carbonitrile] as the compound, how does the IC50 read?
Its IC50 is < 100 nM.

For `C[C@@H](NC(=O)c1ccccn1)[C@H]1CC[C@H]2[C@@H]3CC[C@@H]4C[C@](C)(O)CC[C@@H]4[C@H]3CC[C@]12C` [Example 100], which IC50 is on record?
Its IC50 is 100 to 1000 nM.

Reference: patent US20230322846A9, “NEUROACTIVE STEROIDS AND THEIR METHODS OF USE” (SAGE THERAPEUTICS, INC., priority 2018, published 2023)
